Experimental data as given in patent US7919525B2, “Radiation protection by gamma-tocotrienol” (priority 2003, dated 2011).

Columns and labels:
Format in all cases: in vivo
CD2F1 male mice [1] = assay: 30-day survival of mice given succinate ester orally before Cobalt-60 irradiation; conditions: 9.5 Gy Cobalt-60, 0.6 Gy/min; oral 0.1 ml of 200 unit/ml 20-24 hours before irradiation
Experimental: (§1) After radiation, mice were returned to their original cages with free access to food and water. Mice were weighed and monitored for survivors everyday for 30 days. Percentages of survivors at the end of 30 days are used as a measure of the efficacy of γ-tocotrienol in protecting from radiation damage.
0.5 g TS (Sigma, 1210 units/g) was sonicated with 2.85 ml PEG-400 (polyethylene glycol-400) and 0.15 ml of vital-E-placebo, a solubilizing agent (Schering-Plough). The final concentration of TS in the prepared solution is 200 units/ml. At a dose of 800 unit/kg, 1 ml of the prepared solution as described above is sufficient for 8 mice. Vehicle for injection into control mice was prepared exactly as for TS except that 0.5 ml of olive oil was used instead of TS.
Each animal was orally administered 0.1 ml of TS solution (200 unit/ml) or vehicle by using feeding needles with a blobbed head. All administrations were done 20-24 hours before irradiation.
Animals were then placed in well-ventilated Lucite boxes (eight animals in a compartmentalized box) and irradiated in a Cobalt-60 facility at a radiation dose rate of 0.6 Gy/min for total radiation doses of 9, 9.5, and 10 Gy. The radiation doses 9.5 and 10 Gy used are lethal doses. […]
The efficacy of α-tocopherol succinate in protecting from radiation damage is monitored as described in Example 4. […]

CD2F1 male mice [2] = assay: 30-day survival of mice injected s.c. before lethal Cobalt-60 irradiation; conditions: for protective efficacy at higher radiation dose (in words): 11 Gy; for survival at 30 days after irradiation: s.c. injection 20-24 hours before irradiation
Experimental: CD2F1 male mice, 6-8 weeks old (approximately 25 g), procured from Jackson Labs were used throughout this study and were kept in rooms maintained at 21±0.5° C. Animals on arrival were maintained in quarantine for 10 days during which time serological testing was done for contamination by pathogens. All animals were provided with pellet diet and water ad lib.
A preparation of γ-tocotrienol in a final volume of 1 ml was made by mixing 0.11 ml of γ-tocotrienol with 0.85 ml PEG-400 (polyethylene glycol-400) and 0.05 ml of vital-E-placebo, a solubilizing agent (Schering-Plough). 1 ml of the preparation is sufficient for 8 mice. Final concentration of γ-tocotrienol is 100 mg/ml. Vehicle for injection into control animals was prepared exactly as for γ-tocotrienol except that 0.11 ml of olive oil was used instead of γ-tocotrienol.
(§2) Each animal was injected subcutaneously (at the nape of the neck) with 0.1 ml of either γ-tocotrienol or vehicle preparation. Injections were done 20-24 hours before irradiation.
(§3) Animals were placed in well-ventilated Lucite boxes (8 animals in a compartmentalized box) and irradiated in a Cobalt-60 facility at a radiation dose rate of 0.6 Gy/min for a total radiation dose of 10.5 and 11 Gy. The radiation dose used is a super lethal dose. The LD50/30 radiation dose for this strain of mice is 8.9 Gy with the vehicle alone. The radiation dose and dose rate were the same that had been used for α-tocopherol studies.
as §1

CD2F1 male mice [3] = assay: Body weight of mice after irradiation at 10.5 Gy; conditions: 0.6 Gy per minute, s.c.
Experimental: as §2, §3, §1
Among the different treatment groups, the untreated mice (Untr, Irrad) and the mice treated with vehicle (Vehicle) started to loose weight again from around day 9 and died by day 15.

[4] = experiment 1, 10.5 Gy Cobalt-60, 0.6 Gy/min, 8 mice
[5] = experiment 2, 10.5 Gy Cobalt-60, 0.6 Gy/min, 8 mice

| Compound | survival at 30 days after irradiation (CD2F1 male mice [1]) [%] | protection less than that of γ-tocotrienol (CD2F1 male mice [2]; 10.5 Gy) [%] | protective efficacy at higher radiation dose (in words) (CD2F1 male mice [2]) | survival at 30 days after irradiation (CD2F1 male mice [2]; 11 Gy Cobalt-60, 0.6 Gy/min) | survival at 30 days after irradiation (CD2F1 male mice [2]; [4]) [%] | survival at 30 days after irradiation (CD2F1 male mice [2]; [5]) [%] | protection higher than with α-tocopherol (CD2F1 male mice [2]; 10.5 Gy, both experiments) [%] | survival after irradiation, both experiments together (CD2F1 male mice [2]; 10.5 Gy, given before irradiation) | body weight course after irradiation (in words) (CD2F1 male mice [3]) |
| --- | --- | --- | --- | --- | --- | --- | --- | --- | --- |
| Cc1c(C)c2c(c(C)c1OC(=O)CCC(=O)O)CC[C@@](C)(CCC[C@H](C)CCC[C@H](C)CCCC(C)C)O2 [α-tocopherol succinate] | 60 |  |  |  |  |  |  |  |  |
| Cc1c(C)c2c(c(C)c1O)CC[C@@](C)(CCC[C@H](C)CCC[C@H](C)CCCC(C)C)O2 [α-tocopherol, reference compound] |  | 25 | not effective | no survivors | 75 | 50 |  |  |  |
| γ-tocotrienol |  |  | better radioprotectant than α-tocopherol | 40% | 100 | 75 | 25 | 75%-100 | continued to gain weight and did not die from the irradiation |
